Results from patent US11911375B2, “Solid oral nicotine formulation” (Fertin Pharma A/S, priority 2020, dated 2024).

Legend:
[1] = Example 15: release of nicotine from NPR (16%) with 1 equivalent of AlCl3 or MgO in water, 28 mg/L nicotine, 25 degrees Celsius, 150 rpm, HPLC; assay type: physicochemical; conditions: 1 equivalent of MgO; release from NPR (16%)
Protocol: The temperature of the water was 25 degrees Celsius throughout the experiment and stirring of 150 rpm was applied throughout the experiment. pH was measured at experiment start and end.
(§1) A relative low nicotine concentration is used in order to reduce the impact of equilibrium on both the release rate and effective release of nicotine from the ion-exchange resin.
Samples were taken out at varying timepoints and analyzed for nicotine content using standard HPLC. The result is presented as percentage of nicotine released.

[2] = 25 degrees Celsius, atmospheric pressure and pH 7.0; cited from earlier work
[3] = compared with CaCl2; release from NPR (16%)
Protocol: The temperature of the water was 25 degrees Celsius throughout the experiment and stirring of 100 rpm was applied throughout the experiment. pH was measured at experiment start and end.
as §1
Samples were taken out at varying timepoints and analyzed for nicotine content using standard HPLC. The results are presented as percentage of nicotine released.

Compound: [Mg+2].[O-2] [MgO]
- Effect of the presence of MgO on release of nicotine [1]: does not increase the release of nicotine
- water-solubility [2]: below 5 grams per 100 mL of water

Compound: [Cl-].[Na+] [NaCl]
- Effect of NaCl on the release of nicotine [3]: much lower effect on the release of nicotine
